Results from patent US8217068B2, “Compound with anesthetics activity, methods for its production and pharmaceutical compositions comprising the same” (Universidade Federal de Pernambuco—UFPE, priority 2007, dated 2012).

Tests used:
Type in all cases: in vivo
[1] = tested on: male Swiss mice; experiment: Hot Plate Test, analgesic activity (% AA) after i.p. administration
Procedure: The activity of several compounds with action in central nervous system as opioids, which the main drug is morphine, and the alpha-2 adrenoceptor agonist as clonidine have been identified by this method.
The analgesic activity of LPSF-PT-31, GIRSUPAN was investigated in male Swiss mice weighting 18-24 grams using the Hot Plate Test method (Brain Res. 1983, 245-252). The animals were positioned on a hot plate stabilized at 52° C. using the equipment Analgesic Meter-Letica LE 7406. When the pain threshold was achieved the animals raised and licked the front paw to cool down the temperature. The time between positioning the animals on the plate and lick the paw was the latency of the pain reaction. The maximal time (cut-off) allowed to the animals staying on the hot plate was three times the latency time measured on the control. The cut-off was very important to avoid skin damage of the paw.
The analgesic effect of the tested compounds was converted to a unit denominated analgesic activity (% AA) (Brain Res. 1983, 245-252) calculated by equation % AA=((post-drug latency)−(control latency))/((cut off)−(control latency))×100. The experimental protocol used to test the analgesic effect of the compound LPSF-PT-31, GIRSUPAN, consisted to measure the AA in the control condition (before drug administration) and after (i.p.) intraperitoneal administration of increasing dose (1, 5, 10 and 15 mg·kg^−1).
In another experimental group, dimethyl sulfoxide used as vehicle for diluting LPSF-PT-31, GIRSUPAN, was i.p. administered at same volume used for the tested drug. The AA was measured until complete recovery to the control condition.

[2] = tested on: male Swiss mice; experiment: Isobolographic analysis of the combination with morphine (analgesic effect, DE50); conditions: i.p., combination of fractions of DE50 of each drug, FIG. 3
Procedure: First, we determined the dose of morphine that cause 50% of maximal analgesic effect (DE50) after administration (i.p.) in incremental doses. […] Fraction of association of DE50 of each drug was administrated and the DE50 of combination was determined. A isobolographic analysis (FIG. 3) using the DE50 of each drug and of the combination was performed using a computer program (Life Sci 1989 45: 947-961) to determine the type of interaction.

[3] = tested on: Wistar male rats; experiment: Hot Plate analgesic effect after intrathecal administration
Procedure: Stimulation of alpha-2 adrenoceptors distributed at spinal cord cause analgesia. […] Thus, the analgesic activity of LPSF-PT-31, GIRSUPAN was investigated after intrathecal administration. Wistar male rats weighting 240-280 grams were positioned in abdominal under light general anesthesia with sevoflurane. Puncture between L4-L5 was performed with low diameter needle (29 G) and LPSF-PT-31, GIRSUPAN was injected at dose of 20, 40, 80 or 160 μg diluted in constant volume of 50 μl. Sevoflurane was the elected anesthetic due to low blood solubility causing a fast induction and recovery of anesthesia.
Thus, the animals were completely recovered few minutes after punction and injection LPSF-PT-31, GIRSUPAN and AA activity started to measure from 10 minutes. […] The maximal analgesic effect measured by Hot Plate was ca. 40% sustained by 180 minutes. This intensity of analgesic effect is observed with alpha-2 adrenoceptor agonist as clonidine.

[4] = tested on: male Swiss mice; experiment: Sedative activity by measuring motor activity (Motor Activity Monitor)
Procedure: The sedative activity of 3-(2-chloro-6-fluoro-benzyl)-imidazolidine-2,4-dione LPSF-PT-31, GIRSUPAN was investigated in male Swiss mice weighting 18-24 grams by measuring the motor activity (Motor Activity Monitor, Letica LE 8811). In this equipment the animals are positioned in an open square field and a set of invisible beans cross the field. The interruption of the beans was used to quantify the motor activity. After a period of adaptation the motor activity of the animals was measured during 20 min.
Decrease of motor activity represents reduction of brain activity and this observation is useful to investigate the effect of drug with sedative, hipnotic, anxyolitic and general anesthetic properties (Bioorg. Med. Chem. 2006, 14:632-640). Thus, measurement of motor activity is not a method to identify a specific group of pharmacological class.

[5] = tested on: Wistar male rats; experiment: Activity on cardiovascular system: blood pressure and EKG recording in awake animals; conditions: 10 mg/kg single dose through external jugular vein
Procedure: Hypotension and reduction of heart rate are the major concern of alpha-2 adrenoceptor agonist as clonidine. These effects are justified by decreasing the central nervous system sympathetic outflow due to activation of alpha-2 adrenoceptor. With the aim to investigate if LPSF-PT-31, GIRSUPAN could cross the brain barrier and reduces the hemodynamic response, Wistar male rats weighing 230-280 grams were prepared for blood pressure and electrocardiogram (EKG) recording. The heart rate was estimated by analysis of EKG. LPSF-PT-31, GIRSUPAN (10 mg/kg) was injected trough external jugular vein in a single dose in awaked animals. The blood pressure and the heart rate were not changed showing that LPSF-PT-31, GIRSUPAN is a stable compound for the cardiovascular system differently that occurs with clonidine.

## O=C1CNC(=O)N1Cc1c(F)cccc1Cl [LPSF-PT-31, 3-(2-chloro-6-fluoro-benzyl)-imidazolidine-2,4-dione]
[1]; 15 mg·kg^−1 i.p.
  maximal effect (% AA): about 80 % AA
[1]; i.p.
  duration of plateau of analgesic effect: 40 to 50 min
  time of peak of analgesic effect: approximately 20 min
  time to complete recovery from the analgesic effect: 100 to 120 min
[1]; i.p. 1, 5, 10 and 15 mg·kg^−1, hot plate 52° C., FIG. 1
  effect on % AA (analgesic activity): increased the % AA in a dose-dependent manner
[1]; naloxone 1 mg·kg^−1 i.p.
  reversal of analgesic effect by naloxone (antagonist of opioid receptor): partially reversed
[1]; previous treatment with flumazenil 0.3 mg·kg^−1
  reversal of analgesic effect by flumazenil (antagonist of benzodiazepine receptor): not reversed
[1]; yohimbine 5 mg·kg^−1 i.p., compound 10 mg·kg^−1, FIG. 2
  reversal of analgesic effect by yohimbine (antagonist of alpha-2 adrenoceptor): completely reversed
[2]
  type of interaction with morphine (isobolographic analysis of DE50): strong synergic interaction
[3]; intrathecal
  duration of maximal analgesic effect: 180 min
  maximal analgesic effect measured by Hot Plate: ca. 40%
[3]; intrathecal 20, 40, 80 or 160 μg in 50 μl, FIG. 4
  effect on pain reaction after intrathecal administration: reduces the pain reaction after intrathecal administration in a dose-dependent manner
[4]; 10 mg·kg^−1, motor activity measured during 20 min, FIG. 5
  reduction of motor activity: ca. 80%
[4]; 10 mg·kg^−1, positive control midazolam, FIG. 5
  intensity of motor activity reduction versus positive control: comparable to midazolam
[4]; yohimbine
  reversal of decrease of motor activity by yohimbine: completely reversed
[5]
  blood pressure: not changed
  heart rate (estimated by analysis of EKG): not changed
